Entries after “also recorded” stand apart in the source; their conditions may differ.
Experiments:
MtENOD11::GUSA = assay: Induction of early nodulin ENOD11 transcription, MtENOD11::GUSA reporter, wild-type Jemalong plants; format: in vivo, Medicago truncatula; details: 6 hours LCO treatment, X-Gluc blue roots counted, FIG. 5
Protocol: (§1) These tests are performed to determine whether the synthetic LCOs induce symbiotic responses by activation on the same signal transduction pathway as the natural Nod factors. The tests are performed on the model legume Medicago truncatula. […] The compound that serves as reference is the sulfated tetramer 12 acylated with C16:2Δ2E,9Z chain, which is an analog of the natural Nod factor. The control is the plant cultivated in the absence of LCO.
(§2) A new gene of Medicago truncatula, MtENOD11, coding for an RPRP (Repetitive proline-rich protein), and transcribed during the first steps of infection of nodulation on the nodule roots and tissues was identified (Journet et al. Mol. Plant-Microbe Interact., 14, 737-748, 2001). Using the transgenic Medicago truncatula plant expressing the fusion MtENOD11::GUSA, it is possible to determine whether a Nod factor analog added to the culture medium of the plant has induced transcription of the ENOD11 gene.
(§3) For the ENOD11 transcription tests, a Fahraeus medium is used as for the modulation tests, but without agar. The seedlings are placed on paper in pockets containing the culture medium. […] The number of roots giving a characteristic blue response is then counted.

alfalfa = assay: Nodulation tests on alfalfa (induction of the formation of root nodules); format: in vivo; details: alfalfa plantlets; for nodulation activity relative to the benzamide derivative 3: FIG. 2-4
Protocol: The sulfated products are tested on alfalfa for induction of the formation of root nodules, and on the model legume Medicago truncatula for induction of the expression of a symbiotic gene coding for an early nodulin. Alfalfa plantlets are grown under axenic conditions in test tubes on a nitrogen-poor agar medium (Demont-Caulet et al., Plant Physiol., 120, 83-92, 1999). Untreated plantlets serve as control. Natural Nod or synthetic LCO factors are added at the concentrations indicated.

[1] = tested on: MtENOD11::GUS in plant bearing a mutation in the DMI1 gene; assay: Induction of early nodulin ENOD11 transcription, MtENOD11::GUS reporter, plants bearing a mutation in the DMI1 gene; format: in vivo, Medicago truncatula; details: DMI1 mutant plants, 6 hours LCO treatment, X-Gluc
Protocol: as §1, §2, §3

Lotus corniculatus = assay: Root hair deformation assay on Lotus corniculatus; format: in vivo; set-up: key to Root hair deformation (Had) response: The responses were classified “+” when the proportion of Had+ was significantly higher (at the probability level P=0.05) among the treated plants compared with the untreated control; details: for Root hair deformation (Had) response: 15 plants, 16 hr incubation
Protocol: Seeds of Lotus corniculatus (cv Rodeo) were sterilized. Germinated seeds with rootlets about 1 cm long were aseptically transferred onto Farhaeus soft agar plates. Plates were sealed with Parafilm and placed vertically for two days in a plant growth chamber (at 25° C., with a 16-hr light period, a relative humidity of 75%, OsramVFluora L 77 as the type of light, and light intensity at the level of the top of the plates of 30 μE.m-2.s-1) to allow plant growth and root hair development. Then 2 ml of a Nod factor derivative sterile solution was poured to cover the Lotus root system, and after 30 mm, excess liquid was removed. A further incubation was performed for 16 hr in the plant growth chamber. The roots of the five plants were transferred between slide and cover slip and observed by bright field microscopy after staining by methylene blue.
Hair deformation (Had) activity was estimated by a limit dilution method. Nod factor derivatives were applied at concentrations ranging from 10^-7 M to 10-11 M. The activity of two DP5 chitin derivatives were compared, the soybean Nod factor and its benzoylated analog 10. Both compounds were O-fucosylated at the reducing end, but differed by the N-substitution on the terminal non-reducing glucosamine residue, either C18:1 N-acylated like the soybean Nod factor or N-benzoylated. Each compound was dissolved in water/ethanol 50/50; 0,01% Chaps was added at a concentration of 1 mM. These stock solutions were then diluted in water. […] The statistical significance (at the P=0.05) of the proportion of <<+>> responses was calculated using the ratio comparisons based on the Fisher's <<Exact>> test (SAS software). Experiments were carried out twice.
Fifteen plants were used for each treatment and each dilution. Sixty six untreated control plants were used to estimate the intrinsic plant variability for the Hair deformation character. […] Data were analysed using the Fisher's “Exact” test.

Question: With CCCCCC/C=C\CCCOc1cccc(C(=O)N[C@H]2[C@H](O[C@H]3[C@H](O)[C@@H](NC(C)=O)[C@H](O[C@H]4[C@H](O)[C@@H](NC(C)=O)[C@H](O[C@H]5[C@H](O)[C@@H](NC(C)=O)C(O)O[C@@H]5COS(=O)(=O)[O-])O[C@@H]4CO)O[C@@H]3CO)O[C@H](CO)[C@@H](O)[C@@H]2O)c1.[Na+] (stereo partly drawn) [compound 3, 2-acetamido-4-O-{2-acetamido-4-O-[2-acetamido-2-deoxy-4-O-(2-deoxy-2-(N-3-(undec-4Z-enyloxy)benzoyl)amino-β-D-glucopyranosyl)-β-D-glucopyranosyl]-2-deoxy-β-D-glucopyranosyl}-2-deoxy-6-O-sulfo-D-glucopyranose, sodium salt] as the molecule, how does the “ENOD11 transcription, times less active than the reference compound, the acylated tetramer 12” value (MtENOD11::GUSA) read?
Answer: approximately 10 times

Question: And the “nodulation activity on alfalfa” value (alfalfa; axenic, nitrogen-poor agar medium, result in words, sodium salt)?
Answer: advantageous activity; also recorded: most active synthetic compound

Question: And the “nodulation activity relative to the sulfated tetramer 11 acylated with the reference C16:1Δ9Z chain” value (alfalfa; FIG. 1)?
Answer: similar

Question: What about the “ENOD11::GUS response in plants bearing the DMI1 mutation” value [1] of the same molecule?
Answer: does not induce any response

Question: How did the “nodulation activity relative to the benzamide derivative 3” value (alfalfa) turn out when CCCCCC/C=C\CCCOc1cccc(CN[C@H]2[C@H](O[C@H]3[C@H](O)[C@@H](NC(C)=O)[C@H](O[C@H]4[C@H](O)[C@@H](NC(C)=O)[C@H](O[C@H]5[C@H](O)[C@@H](NC(C)=O)C(O)O[C@@H]5COS(=O)(=O)[O-])O[C@@H]4CO)O[C@@H]3CO)O[C@H](CO)[C@@H](O)[C@@H]2O)c1.[Na+] (stereo partly drawn) [compound 4, 2-acetamido 4-O-{2-acetamido-4-O-[2-acetamido-2-deoxy-4-O-(2-deoxy-2-(N-3-(undec-4Z-enyloxy)benzyl)amino-β-D-glucopyranosyl)-β-D-glucopyranosyl]-2-deoxy-β-D-glucopyranosyl}-2-deoxy-6-O-sulfo-D-glucopyranose, sodium salt] was run?
Answer: moderate activity

Question: CCCCCC/C=C\CCCOc1cccc(CN(C(C)=O)[C@H]2[C@H](O[C@H]3[C@H](O)[C@@H](NC(C)=O)[C@H](O[C@H]4[C@H](O)[C@@H](NC(C)=O)[C@H](O[C@H]5[C@H](O)[C@@H](NC(C)=O)C(O)O[C@@H]5COS(=O)(=O)[O-])O[C@@H]4CO)O[C@@H]3CO)O[C@H](CO)[C@@H](O)[C@@H]2O)c1.[Na+] (stereo partly drawn) [compound 5, 2-acetamido-4-O-{2-acetamido-4-O-[2-acetamido-2-deoxy-4-O-(2-deoxy-2-(N-3-(undec-4Z-enyloxy)benzyl)acetamido-β-D-glucopyranosyl)-β-D-glucopyranosyl]-2-deoxy-β-D-glucopyranosyl}-2-deoxy-6-O-sulfo-D-glucopyranose, sodium salt] was tested. Which “nodulation activity relative to the benzamide derivative 3” value (alfalfa) did it give?
Answer: lower

Question: For CCCCCCC#CCCCOc1cccc(C(=O)N[C@H]2[C@H](O[C@H]3[C@H](O)[C@@H](NC(C)=O)[C@H](O[C@H]4[C@H](O)[C@@H](NC(C)=O)[C@H](O[C@H]5[C@H](O)[C@@H](NC(C)=O)C(O)O[C@@H]5COS(=O)(=O)[O-])O[C@@H]4CO)O[C@@H]3CO)O[C@H](CO)[C@@H](O)[C@@H]2O)c1.[Na+] (stereo partly drawn) [compound 7, 2-acetamido-4-O-{2-acetamido-4-O-[2-acetamido-2-deoxy-4-O-(2-deoxy-2-(N-3-(undec-4Z-ynyloxy)benzoyl)amino-β-D-glucopyranosyl)-β-D-glucopyranosyl]-2-deoxy-β-D-glucopyranosyl}-2-deoxy-6-O-sulfo-D-glucopyranose, sodium salt], which “nodulation activity relative to the benzamide derivative 3” value (alfalfa) is on record?
Answer: comparable

Question: What does the source list for CCCCCC/C=C\CCCOc1cccc(C(=O)NC2C(O)[C@H](O)C(CO)O[C@H]2O[C@@H]2C(CO)O[C@@H](O[C@@H]3C(CO)O[C@@H](O[C@@H]4C(CO)O[C@@H](O[C@@H]5C(CO[C@@H]6OC(C)[C@@H](O)C(O)C6O)OC(O)C(NC(C)=O)C5O)C(NC(C)=O)C4O)C(NC(C)=O)C3O)C(NC(C)=O)C2O)c1 (stereo partly drawn) [compound 10, 2-acetamido-4-O-[2-acetamido-4-O-{2-acetamido-4-O-[2-acetamido-2-deoxy-4-O-(2-deoxy-2-(N-3-(undec-4Z-enyloxy)benzoyl)amino-β-D-glucopyranosyl)-β-D-glucopyranosy]-2-deoxy-β-D-glucopyranosyl}-2-deoxy-β-D-glucopyranosyl]-2-deoxy-6-O-(-α-L-fucopyranosyl)-D-glucopyranose]?
Answer: Root hair deformation (Had) response (Lotus corniculatus; 10^−7 M): +; Root hair deformation (Had) response (Lotus corniculatus; 10^−8 M): +; Root hair deformation (Had) response (Lotus corniculatus; 10^−9 M): +; concentration at which activity is significant in the root hair bioassay (Lotus corniculatus; limit dilution method): nanomolar; activity on the Lotus corniculatus root hair bioassay (Lotus corniculatus; result in words): high activity

Source: patent US7619076B2, “Synthetic compounds useful as nodulation agents of leguminous plants and preparation processes thereof” (Bayer Cropscience S.A., priority 2003, dated 2009)
